Results taken from patent US10301280B2 (Plexxikon Inc., priority 2012, dated 2019).
pIC50: −log10 of the molar value.

What was measured:
[1] = tested on: BaF3-FL KIT D816V or BaF3-FL KIT V560G/D816V cell line; assay: Cell-based assays of c-Kit mutant kinase activity (cell growth, ATPlite); conditions: at least one of the c-kit cell assays of Example 26
Outline: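 BaF3 cells dependent on full-length human KIT (D816V or V560G/D816V) seeded at 1×10^4 cells/well in RPMI with 10% FBS. Eight-point 1:3 dilutions from 10 μM top final (0.2% DMSO), 3 days at 37° C., 5% CO2. ATPlite luminescence gave IC50.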

[2] = target: c-kit mutant D816V (Homo sapiens (Human), UniProt P10721, D816V/DEL694-753); assay: c-Kit mutant D816V biochemical assay (AlphaScreen); conditions: c-kit D816V biochemical inhibitory activity
Sequence of c-kit mutant D816V (P10721 other isoform, or with tags, fused parts or gaps D816V/del 694-753): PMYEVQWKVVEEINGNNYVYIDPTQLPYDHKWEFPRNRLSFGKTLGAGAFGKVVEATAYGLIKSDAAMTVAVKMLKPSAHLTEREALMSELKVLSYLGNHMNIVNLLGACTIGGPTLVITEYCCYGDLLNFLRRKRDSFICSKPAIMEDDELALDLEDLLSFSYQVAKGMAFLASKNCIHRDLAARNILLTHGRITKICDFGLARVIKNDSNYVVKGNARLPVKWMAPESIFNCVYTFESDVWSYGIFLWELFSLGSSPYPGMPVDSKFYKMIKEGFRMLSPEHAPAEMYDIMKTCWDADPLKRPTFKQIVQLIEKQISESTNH
Outline: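 His-tagged c-Kit D816V kinase domain (551-934, Δ694-753, E. coli) phosphorylating 30 nM biotin-(E4Y)10 at 10 μM ATP in HEPES pH 7.2 with Mg/Mn, 5% DMSO, 30 min at room temperature. PY20-acceptor/streptavidin-donor AlphaScreen detection after EDTA stop. IC50 from 8-point 1:3 titration.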

Structure (SMILES)	pIC50 [1]	IC50 [2] [µM]
Cc1nn(C2COC2)cc1-c1cc2cc(NC(=O)c3[nH]nc(C)c3C)cnc2[nH]1 [P-2168, 3,4-dimethyl-N-[2-[3-methyl-1-(oxetan-3-yl)pyrazol-4-yl]-1H-pyrrolo[2,3-b]pyridin-5-yl]-1H-pyrazole-5-carboxamide]	> 5.00	0.0001 to 1
Cc1n[nH]c(C(=O)Nc2cnc3[nH]c(-c4ccccc4OC(F)(F)F)cc3c2)c1C [P-2182, 3,4-dimethyl-N-[2-[2-(trifluoromethoxy)phenyl]-1H-pyrrolo[2,3-b]pyridin-5-yl]-1H-pyrazole-5-carboxamide]	> 5.00	0.0001 to 1
Cc1n[nH]c(C(=O)Nc2cnc3[nH]c(-c4c(C)nn(C)c4C)cc3c2)c1C [P-2165, 3,4-dimethyl-N-[2-(1,3,5-trimethylpyrazol-4-yl)-1H-pyrrolo[2,3-b]pyridin-5-yl]-1H-pyrazole-5-carboxamide]	> 5.00	1 to 10
Cc1n[nH]c(C(=O)Nc2cnc3[nH]c(-c4ccnc(C(C)C)c4)cc3c2)c1C [P-2163, N-[2-(2-isopropyl-4-pyridyl)-1H-pyrrolo[2,3-b]pyridin-5-yl]-3,4-dimethyl-1H-pyrazole-5-carboxamide]	> 5.00	0.0001 to 1
Cc1ccc(-c2cc3cc(NC(=O)c4[nH]nc(C)c4C)cnc3[nH]2)c(C)c1 [P-2181, N-[2-(2,4-dimethylphenyl)-1H-pyrrolo[2,3-b]pyridin-5-yl]-3,4-dimethyl-1H-pyrazole-5-carboxamide]	> 5.00	0.0001 to 1
Cc1[nH]nc(C(=O)Nc2cnc3[nH]c(C4=CCN(C(=O)C5CC5)CC4)cc3c2)c1Cl [P-2039, 4-chloro-N-[2-[1-(cyclopropanecarbonyl)-3,6-dihydro-2H-pyridin-4-yl]-1H-pyrrolo[2,3-b]pyridin-5-yl]-5-methyl-1H-pyrazole-3-carboxamide]	> 5.00	0.0001 to 1
Cc1n[nH]c(C(=O)Nc2cnc3[nH]c(C4=CCN(C(=O)N5CCOCC5)CC4)cc3c2)c1C [P-2034, 3,4-dimethyl-N-[2-[1-(morpholine-4-carbonyl)-3,6-dihydro-2H-pyridin-4-yl]-1H-pyrrolo[2,3-b]pyridin-5-yl]-1H-pyrazole-5-carboxamide]	> 5.00	0.0001 to 1
Cc1n[nH]c(C(=O)Nc2cnc3[nH]c(-c4cccnc4C(F)(F)F)cc3c2)c1C [P-2176, 3,4-dimethyl-N-[2-[2-(trifluoromethyl)-3-pyridyl]-1H-pyrrolo[2,3-b]pyridin-5-yl]-1H-pyrazole-5-carboxamide]	> 5.00	0.0001 to 1
CCc1cc(-c2cc3cc(NC(=O)c4[nH]nc(C)c4C)cnc3[nH]2)ccn1 [P-2177, N-[2-(2-ethyl-4-pyridyl)-1H-pyrrolo[2,3-b]pyridin-5-yl]-3,4-dimethyl-1H-pyrazole-5-carboxamide]	> 5.00	0.0001 to 1
COc1ccc(-c2cc3cc(NC(=O)c4[nH]nc(C)c4C)cnc3[nH]2)c(C)c1C [P-2284, N-[2-(4-methoxy-2,3-dimethyl-phenyl)-1H-pyrrolo[2,3-b]pyridin-5-yl]-3,4-dimethyl-1H-pyrazole-5-carboxamide]	> 5.00	0.0001 to 1
Cc1n[nH]c(C(=O)Nc2cnc3[nH]c(-c4ccc(F)cc4)cc3c2)c1C [P-2024, N-[2-(4-fluorophenyl)-1H-pyrrolo[2,3-b]pyridin-5-yl]-3,4-dimethyl-1H-pyrazole-5-carboxamide]	> 5.00	0.0001 to 1
Cc1[nH]nc(C(=O)Nc2cnc3[nH]c(C4=CCN(C(=O)C5CC5)CC4)cc3c2)c1C [P-2043, N-[2-[1-(cyclopropanecarbonyl)-3,6-dihydro-2H-pyridin-4-yl]-1H-pyrrolo[2,3-b]pyridin-5-yl]-4,5-dimethyl-1H-pyrazole-3-carboxamide]	> 5.00	0.0001 to 1
O=C(Nc1cnc2[nH]c(-c3ccc(F)cc3)cc2c1)c1cccc2n[nH]cc12 [P-2027, N-[2-(4-fluorophenyl)-1H-pyrrolo[2,3-b]pyridin-5-yl]-2H-indazole-4-carboxamide]	> 5.00	1 to 10
Cc1c[nH]nc1C(=O)Nc1cnc2[nH]c(-c3ccc(F)cc3)cc2c1 [P-2029, N-[2-(4-fluorophenyl)-1H-pyrrolo[2,3-b]pyridin-5-yl]-4-methyl-1H-pyrazole-3-carboxamide]	> 5.00	0.0001 to 1
CCn1nccc1S(=O)(=O)Nc1cnc2[nH]c(-c3ccc(F)cc3)cc2c1 [P-2030, 2-ethyl-N-[2-(4-fluorophenyl)-1H-pyrrolo[2,3-b]pyridin-5-yl]pyrazole-3-sulfonamide]	> 5.00	10 to 200
Cc1n[nH]c(C(=O)Nc2cnc3[nH]c(-c4cccc5c4OCC5)cc3c2)c1C [P-2273, N-[2-(2,3-dihydrobenzofuran-7-yl)-1H-pyrrolo[2,3-b]pyridin-5-yl]-3,4-dimethyl-H-pyrazole-5-carboxamide]	> 5.00	0.0001 to 1

Structure (SMILES)	pIC50 [1]	IC50 [2] [µM]
Cc1n[nH]c(C(=O)Nc2cnc3[nH]c(C4=CCN(C(=O)N5CCOCC5)CC4)cc3c2)c1Cl [P-2036, 4-chloro-3-methyl-N-[2-[1-(morpholine-4-carbonyl)-3,6-dihydro-2H-pyridin-4-yl]-1H-pyrrolo[2,3-b]pyridin-5-yl]-1H-pyrazole-5-carboxamide]	> 5.00	0.0001 to 1
Cc1n[nH]c(C(=O)Nc2cnc3[nH]c(-c4cnn(C5CCNCC5)c4)cc3c2)c1C [P-2048, 3,4-dimethyl-N-[2-[1-(4-piperidyl)pyrazol-4-yl]-1H-pyrrolo[2,3-b]pyridin-5-yl]-1H-pyrazole-5-carboxamide]	> 5.00	0.0001 to 1
Cc1n[nH]c(C(=O)Nc2cnc3[nH]c(-c4cnccc4C(N)=O)cc3c2)c1C [P-2272, 3-[5-[(3,4-dimethyl-1H-pyrazole-5-carbonyl)amino]-1H-pyrrolo[2,3-b]pyridin-2-yl]pyridine-4-carboxamide]	> 5.00	0.0001 to 1
Cc1n[nH]c(C(=O)Nc2cnc3[nH]c(-c4ccc(F)cc4)cc3c2)c1Cl [P-2023, 4-chloro-N-[2-(4-fluorophenyl)-1H-pyrrolo[2,3-b]pyridin-5-yl]-3-methyl-1H-pyrazole-5-carboxamide]	> 5.00	0.0001 to 1
CC(=O)Nc1cccc(C(=O)Nc2cnc3[nH]c(-c4ccc(F)cc4)cc3c2)c1 [P-2026, 3-acetamido-N-[2-(4-fluorophenyl)-1H-pyrrolo[2,3-b]pyridin-5-yl]benzamide]	> 5.00	10 to 200
Cc1n[nH]c(C(=O)Nc2cnc(Nc3ccccc3)nc2)c1C [P-2044, N-(2-anilinopyrimidin-5-yl)-3,4-dimethyl-1H-pyrazole-5-carboxamide]	> 5.00	0.0001 to 1
Cc1n[nH]c(C(=O)Nc2cnc3[nH]c(-c4ccc(F)nc4F)cc3c2)c1C [P-2280, N-[2-(2,6-difluoro-3-pyridyl)-1H-pyrrolo[2,3-b]pyridin-5-yl]-3,4-dimethyl-1H-pyrazole-5-carboxamide]	> 5.00	0.0001 to 1
Cc1cc(C(=O)Nc2cnc3[nH]c(-c4ccc(F)cc4)cc3c2)[nH]n1 [P-2019, N-[2-(4-fluorophenyl)-1H-pyrrolo[2,3-b]pyridin-5-yl]-3-methyl-1H-pyrazole-5-carboxamide]	> 5.00	0.0001 to 1
Cc1n[nH]c(C(=O)Nc2cnc3[nH]c(-c4cccc(N5CCNCC5)c4)cc3c2)c1C [P-2274, 3,4-dimethyl-N-[2-(3-piperazin-1-ylphenyl)-1H-pyrrolo[2,3-b]pyridin-5-yl]-1H-pyrazole-5-carboxamide]	> 5.00	0.0001 to 1
Cc1n[nH]c(C(=O)Nc2cnc3[nH]c(-c4cccc(C(=O)O)c4C)cc3c2)c1C [P-2297, 3-[5-[(3,4-dimethyl-1H-pyrazole-5-carbonyl)amino]-1H-pyrrolo[2,3-b]pyridin-2-yl]-2-methyl-benzoic acid]	> 5.00	0.0001 to 1
Cc1n[nH]c(C(=O)Nc2cnc3[nH]ccc3c2)c1C [P-2032, 3,4-dimethyl-N-(1H-pyrrolo[2,3-b]pyridin-5-yl)-1H-pyrazole-5-carboxamide]	> 5.00	1 to 10
Cc1n[nH]c(C(=O)Nc2cnc3[nH]c(-c4ccnc(N5CCN(C(=O)C6CC6)CC5)c4)cc3c2)c1C [P-2187, N-[2-[2-[4-(cyclopropanecarbonyl)piperazin-1-yl]-4-pyridyl]-1H-pyrrolo[2,3-b]pyridin-5-yl]-3,4-dimethyl-1H-pyrazole-5-carboxamide]	> 5.00	0.0001 to 1
Cc1cc(-c2cc3cc(NC(=O)c4[nH]nc(C)c4C)cnc3[nH]2)cnc1C [P-2282, N-[2-(5,6-dimethyl-3-pyridyl)-1H-pyrrolo[2,3-b]pyridin-5-yl]-3,4-dimethyl-1H-pyrazole-5-carboxamide]	> 5.00	0.0001 to 1
Cc1n[nH]c(C(=O)Nc2cnc3[nH]nc(-c4cccc(N5CCNCC5)c4)c3c2)c1C [P-2166, 3,4-dimethyl-N-[3-(3-piperazin-1-ylphenyl)-1H-pyrazolo[3,4-b]pyridin-5-yl]-1H-pyrazole-5-carboxamide]	> 5.00	0.0001 to 1
O=C(Nc1cnc2[nH]c(-c3ccccc3)cc2c1)c1cn[nH]n1 [P-2015, N-(2-phenyl-1H-pyrrolo[2,3-b]pyridin-5-yl)-2H-triazole-4-carboxamide]	> 5.00	1 to 10
Cc1n[nH]c(C(=O)Nc2cnc3[nH]c(-c4cncc(C#N)c4)cc3c2)c1C [P-2270, N-[2-(5-cyano-3-pyridyl)-1H-pyrrolo[2,3-b]pyridin-5-yl]-3,4-dimethyl-1H-pyrazole-5-carboxamide]	> 5.00	0.0001 to 1
